In patent publication US4839379A, “Substituted azabicycloalkanes, the use thereof, pharmaceutical compositions containing them” (Ciba-Geigy Corporation, priority 1982, dated 1989):

Test system: aromatase
Experiment: aromatase assay according to Graves and Salhanick using human placental microsomes in vitro
Type: biochemical
Protocol: The novel compounds of formula I and their pharmaceutically acceptable salts have, for example, valuable pharmacological properties as aromatase inhibitors. […] In this experimental method, the formation of water with tritium isotopes and 17β-oestradiol obtained from [1β,2β--^3 H]-testosterone is measured as a result of the action of a compound of the formula I on the formation of the hydrogenated form of the aromatase coenzyme, nicotinamide adenine dinucleotide phosphate (NADPH).

SMILES: Nc1ccc(C23CC2C(=O)N(CC2CCCCC2)C3=O)cc1 (centres unmarked) [Example 12, 1-(4-Aminophenyl)-3-cyclohexylmethyl-3-azabicyclo[3.1.0]hexane-2,4-dione]
- enzyme activity (NADPH content); content of water with radioactive tritium isotopes formed from [1β,2β-3H]-testosterone (compared with measurements without addition of compound): substantially reduces the enzyme activity
- diminution of enzyme activity in comparison measurements with known aromatase inhibitors (comparison with aminoglutethimide): substantially greater than with the addition of other known aromatase inhibitors, e.g. aminoglutethimide
